Read-outs that look alike come from different tables or passages of the source. Where a SMILES comes first, the peptide text is derived from it. [ ]: non-standard residue; d: D form. Gly(Nα-oleyl) = CCCCCCCC/C=C\CCCCCCCCNCC(=O)O; N(2-ethylhexyl)Gly = CCCCC(CC)CNCC(=O)O; Gly(N-dodecyl) = CCCCCCCCCCCCNCC(=O)O; N(CH(CH2OH)2)Gly = O=C(O)CNC(CO)CO; N(octyl)Gly = CCCCCCCCNCC(=O)O; NDecylGly = CCCCCCCCCCNCC(=O)O
Key:
[1] = Particle size and polydispersity (PDI) of delivery vehicles by dynamic light scattering; assay type: physicochemical; conditions: Table 5; delivery vehicle comprising the peptoid, Formulation D22, fLuc mRNA
Description: The resulting delivery vehicle complexes were evaluated by dynamic light scattering (DLS) to determine the volume average particle size/diameter (nm) and the size polydispersity index (PDI) within the delivery vehicle complex.
Particle size. Particle sizes and size distributions were measured using a Wyatt DynaPro® Plate Reader III. In general, formulated samples were diluted to 2 ng/μL in 100 µL PBS. Data is reported as the hydrodynamic diameter (in nm) of the cumulant fit of the correlation function, and the polydispersity of that measurement.
(§1) In one particular instance, the size and polydispersity (PDI) of delivery vehicles was measured by dynamic light scattering in PBS using a DynaPro® plate reader III. The zeta potential of delivery vehicles was determined using Nano-ZS™ particle analyzer. Zeta sample was diluted to 30 uM total lipid in a weakly buffered solution of 10 mM HEPES, 10 mM MES, 10 mM ammonium acetate pH 7. Measurements were collected in duplicate for over 30 run with the voltage manually set to […]

[2] = Percent encapsulated mRNA, RiboGreen assay; assay type: physicochemical; conditions: Table 5; delivery vehicle comprising the peptoid, Formulation D22, fLuc mRNA
Description: Percent encapsulation. The percentage of mRNA encapsulated within the delivery vehicle complexes containing Fluc mRNA was determined using a modified RiboGreen® assay. In general, formulated mRNA samples were diluted to 500 ng/ml in Tris-EDTA buffer with or without Triton-X™. RiboGreen® (Invitrogen) was added at a 200-fold dilution, and the plate was incubated for 5 minutes. Fluorescence was measured at Ex. […]/Em. 520 nm and encapsulated mRNA was calculated by taking the ratio of fluorescence for non-lysed particles versus lysed particles.
The mRNA concentration and the percentage of encapsulated mRNA were determined using a fluorescence-based Quant-iT™ RiboGreen® RNA Reagent Kit using a literature procedure. To determine the mRNA concentration, delivery vehicles were incubated with 2% Triton™ X-100 for 10 min to release entrapped mRNA, followed by addition of RiboGreen® RNA reagent. The fluorescence intensity of mRNA-RiboGreen® reagent complex (excitation at 485 nm and emission at 530 nm) was detected using a microplate reader. The ratio of fluorescence without and with Triton™ X-100 were used to calculate the percentage of encapsulated mRNA.

[3] = Zeta potential of delivery vehicles; assay type: physicochemical; conditions: Table 5; delivery vehicle, pH 7 buffer; in mV (unit assumed)
Description: as §1

[4] = Apparent particle pKa, TNS fluorescence assay; assay type: physicochemical; conditions: Table 5; apparent particle pKa of delivery vehicle
Description: The apparent particle pKa was assessed by a TNS fluorescence assay. Briefly, particles were diluted to 130 uM total lipid in TNS buffer ranging in pH 3-11 for 10 minutes with […] of TNS probe. The fluorescence was measured at room temperature in a plate reader ex 320/em 445. Fluorescence intensity was normalized to the minimal and maximal values and the pKa was determined by a 3 parameter fit to determine the half maximum of the curve.

[5] = RBC hemolysis as metric for fusogenicity; assay type: cell-based; conditions: sheep red blood cells (RBCs), 5% v/v, Table 5, delivery vehicle, 37° C. 45 min
Description: RBC hemolysis was used as a metric for fusogenicity of LNPs at low pH. […] Particles were diluted to […] total lipid in well with 5% RBC solution and incubated at 37° C. for 45 min. Supernatant was collected and absorbance read on a microplate reader at 425 nm. Fusion was normalized to a fully lysed sample with 2% Triton™ and a buffer-only control. % hemolysis=100*[(ABS T-background)−(ABS sample-background)/(ABS T-background)].

[6] = pH 5, read-out: Hemolysis at pH 5
[7] = pH 7, read-out: Hemolysis at pH 7

Structure (SMILES)	PDI [1]	Particle Size (nm) [1] [nm]	% Encapsulation [2] [%]	Zeta Potential [3]	pKa (TNS) [4]	hemolysis at 45 min, 150 mM total lipid [5, 6] [%]	hemolysis at 45 min, 150 mM total lipid [5, 7] [%]
CCCCCCCC/C=C\CCCCCCCCN(CC(=O)N(CCCCCCCCCC)CC(=O)N(CCCCCCCC/C=C\CCCCCCCC)CC(=O)N(CCCCCCCCCC)CC(N)=O)C(=O)CNC(CO)CO [Compound 6]	0.39	71.3	85.9	−0.785	6.373	21.5	60.6
CCCCCCCC/C=C\CCCCCCCCN(CC(N)=O)C(=O)CN(CCCCCCCCCC)C(=O)CN(CCCCCCCC/C=C\CCCCCCCC)C(=O)CNC(CO)CO [Compound 7] (H-[N(CH(CH2OH)2)Gly][Gly(Nα-oleyl)][NDecylGly][Gly(Nα-oleyl)]-NH2)	0.13	62.3	86.3	−2.31	6.283	6.1	23.8
CCCCCCCC/C=C\CCCCCCCCN(CC(=O)N(CCCCCC)CC(=O)N(CCCCCC)CC(=O)N(CCCCCC)CC(=O)N(CCCCCCCC/C=C\CCCCCCCC)CC(=O)N(CCCCCC)CC(=O)N(CCCCCC)CC(=O)N(CCCCCC)CC(N)=O)C(=O)CNC(CO)CO [Compound 9]	0.14	94.9	95.2	−1.6	5.906	1.1	0.1
CCCCCCN(CC(N)=O)C(=O)CN(CC(CC)CCCC)C(=O)CN(CCCCCC)C(=O)CN(CC(CC)CCCC)C(=O)CN(CCCCCC)C(=O)CN(CC(CC)CCCC)C(=O)CN(CCCCCC)C(=O)CN(CC(CC)CCCC)C(=O)CNC(CO)CO (centres unmarked) [Compound 13]	0.102	122.4	82.0	−5.17	5.686	1.8	0.6
CCCCCCN(CC(N)=O)C(=O)CN(CCCCCC)C(=O)CN(CCCCCC)C(=O)CN(CCCCCC)C(=O)CN(CCCCCC)C(=O)CN(CCCCCC)C(=O)CN(CCCCCC)C(=O)CN(CCCCCC)C(=O)CNC(CO)CO [Compound 14]	Multimodal	2228.3	57.3	−3.14	6.825	9.1	0.2
CCCCCCCCCCCCN(CC(N)=O)C(=O)CN(CCCCCCCCCCCC)C(=O)CN(CCCCCCCCCCCC)C(=O)CN(CCCCCCCCCCCC)C(=O)CN(CCCCCCCCCCCC)C(=O)CN(CCCCCCCCCCCC)C(=O)CNC(CO)CO [Compound 16] (H-[N(CH(CH2OH)2)Gly][Gly(N-dodecyl)][Gly(N-dodecyl)][Gly(N-dodecyl)][Gly(N-dodecyl)][Gly(N-dodecyl)][Gly(N-dodecyl)]-NH2)	0.24	93.1	30.6	−3.58	5.554	4.1	2.2
CCCCCCCC/C=C\CCCCCCCCN(CC(N)=O)C(=O)CN(CCCCCCCC)C(=O)CN(CCCCCCCC/C=C\CCCCCCCC)C(=O)CNC(CO)CO [Compound 20] (H-[N(CH(CH2OH)2)Gly][Gly(Nα-oleyl)][N(octyl)Gly][Gly(Nα-oleyl)]-NH2)	0.18	65.4	70.1	3.41	5.773	16.7	33.3
CCCCC(CC)CN(CC(N)=O)C(=O)CN(CC(CC)CCCC)C(=O)CN(CC(CC)CCCC)C(=O)CN(CC(CC)CCCC)C(=O)CNC(CO)CO (centres unmarked) [Compound 24]	0.12	66.9	97.6	−1.59	6.43	100	99.9

Further lines, with some results ahead:

PDI [1]	Particle Size (nm) [1] [nm]	% Encapsulation [2] [%]	Zeta Potential [3]	pKa (TNS) [4]	Structure (SMILES)	hemolysis at 45 min, 150 mM total lipid [5, 6] [%]	hemolysis at 45 min, 150 mM total lipid [5, 7] [%]
0.3	122.5	97.0	−2.71	6.052	CCCCCCCCN(CC(N)=O)C(=O)CN(CCCCCC)C(=O)CN(CCCCCC)C(=O)CN(CCCCCC)C(=O)CN(CCCCCC)C(=O)CN(CCCCCC)C(=O)CN(CCCCCC)C(=O)CN(CCCCCCCC)C(=O)CNC(CO)CO [Compound 10]	1.1	0
0.111	106.6	84.5	−8	5.909	CCCCCCCCCCCCN(CC(=O)N(CCCCCC)CC(=O)N(CCCCCC)CC(=O)N(CC(=O)N(CCCCCCCCCCCC)CC(=O)N(CCCCCC)CC(=O)N(CCCCCC)CC(N)=O)CC(CC)CCCC)C(=O)CN(CC(CC)CCCC)C(=O)CNC(CO)CO (centres unmarked) [Compound 15]	0.9	0.6
0.11	96.7	50.3	−17.8	5.656	CCCCCCCCCCCCN(CC(=O)N(CCCCCC)CC(N)=O)C(=O)CN(CCCCCCCCCCCC)C(=O)CN(CC(CC)CCCC)C(=O)CN(CCCCCC)C(=O)CN(CCCCCCCCCCCC)C(=O)CN(CCCCCCCCCCCC)C(=O)CN(CC(CC)CCCC)C(=O)CNC(CO)CO (centres unmarked) [Compound 17]	2.1	0.3
0.262	66.4	81.2	2.7	5.406	CCCCCCCCCCCCN(CC(N)=O)C(=O)CN(CCCCCCCCCCCC)C(=O)CN(CCCCCCCCCCCC)C(=O)CN(CCCCCCCCCCCC)C(=O)CNC(CO)CO [Compound 21]	35.8	59.5
0.179	51.5	83.3	4.24	5.888	CCCCCCCCCCCCN(CC(=O)N(CCCCCCCCCC)CC(=O)N(CCCCCCCCCCCC)CC(=O)N(CCCCCCCCCC)CC(N)=O)C(=O)CNC(CO)CO [Compound 22]	58.9	81.5
0.214	107.6	87.9	1.84	5.48	CCCCCCCCCCCCN(CC(=O)N(CCCCCCCCCC)CC(N)=O)C(=O)CN(CCCCCCCCCC)C(=O)CN(CCCCCCCCCC)C(=O)CN(CCCCCCCCCCCC)C(=O)CN(CCCCCCCCCC)C(=O)CNC(CO)CO [Compound 27] (H-[N(CH(CH2OH)2)Gly][NDecylGly][Gly(N-dodecyl)][NDecylGly][NDecylGly][Gly(N-dodecyl)][NDecylGly]-NH2)	12.4	9.1
Multimodal	2058.2	–	−6.37	4.595	CCCCCCCCCCN(CC(N)=O)C(=O)CN(CC(CC)CCCC)C(=O)CN(CCCCCCCCCC)C(=O)CN(CCCCCCCCCC)C(=O)CN(CC(CC)CCCC)C(=O)CN(CCCCCCCCCC)C(=O)CNC(CO)CO (centres unmarked) [Compound 43] (H-[N(CH(CH2OH)2)Gly][NDecylGly][N(2-ethylhexyl)Gly][NDecylGly][NDecylGly][N(2-ethylhexyl)Gly][NDecylGly]-NH2)	1.2	0.2
